Results taken from US6316020A, “Pharmaceutical formulations” (priority 2000, dated 2001).

Assay: Solubility assessment as a function of HPβCD concentration
Type: physicochemical
Settings: water
Method: Solubility studies were performed by the addition of a known mass of 5(6)-methoxy-2-[[(4-methoxy-3,5-dimethyl-2-pyridinyl)-methyl]sulfinyl]-1H- benzimidazole and/or HP CD to a given volume of solvent system. Solubilities were determined by observation, as the maximum concentration at which 5(6)-methoxy-2-[[(4-methoxy-3,5-dimethyl-2-pyridinyl)-methyl]sulfinyl]-1H- benzimidazole completely dissolved. Additionally, concentrations of 5(6)-methoxy-2-[[(4-methoxy-3,5-dimethyl-2-pyridinyl)-methyl]sulfinyl]-1H- benzimidazole and HP C D at set molar ratios were solubilized in systems of high pH (adjusted as high as 12.2, with 1N NaOH), the pH was adjusted (using 2N HCl) in a stepwise downward manner until precipitation occurred.
The solubility of 5(6)-methoxy-2-[[(4-methoxy-3,5-dimethyl-2-pyridinyl)-methyl]sulfinyl]-1H- benzimidazole was assessed as a function of HPβCD concentration in water.
The procedure according to Example 86 was repeated except that water with a borate buffer (pH of 8) was employed.
The procedure according to Example 86 was repeated except that water with a phosphate buffer (pH of 11) was employed.

## COc1ccc2[nH]c([S+]([O-])Cc3ncc(C)c(OC)c3C)nc2c1 (centres unmarked) [5(6)-methoxy-2-[[(4-methoxy-3,5-dimethyl-2-pyridinyl)-methyl]sulfinyl]-1H-benzimidazole]
  Solubility as a function of HPβCD concentration: increase linearly as a function of HPβCD concentration
  influence of pH on solubility: influenced by solution pH
